Laboratory results from US10906915B2, “Substituted pyrazoloazepin-4-ones and their use as phosphodiesterase inhibitors” (LEO Pharma A/S, priority 2016, dated 2021).

target: human PDE4D catalytic domain (UniProt no. Q08499) (Homo sapiens (Human), UniProt Q08499); experiment: PDE4 assay (TR-FRET, FAM-cAMP cleavage); assay type: biochemical; details: human PDE4D catalytic domain; molar concentration giving 50% inhibition of substrate cleavage; read-out: PDE4 IC50 range
In short: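 PDE4D catalytic domain ([…]) was incubated with unlabelled cAMP plus FAM-cAMP and titrated compound, stopped with binding buffer of metal-ion nanoparticles and Tb donor. AMP generation read by TR-FRET; IC50 as 50% inhibition of cleavage versus controls, reported as nM ranges.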

Sequence of human PDE4D catalytic domain (Q08499 380-740 limits assumed): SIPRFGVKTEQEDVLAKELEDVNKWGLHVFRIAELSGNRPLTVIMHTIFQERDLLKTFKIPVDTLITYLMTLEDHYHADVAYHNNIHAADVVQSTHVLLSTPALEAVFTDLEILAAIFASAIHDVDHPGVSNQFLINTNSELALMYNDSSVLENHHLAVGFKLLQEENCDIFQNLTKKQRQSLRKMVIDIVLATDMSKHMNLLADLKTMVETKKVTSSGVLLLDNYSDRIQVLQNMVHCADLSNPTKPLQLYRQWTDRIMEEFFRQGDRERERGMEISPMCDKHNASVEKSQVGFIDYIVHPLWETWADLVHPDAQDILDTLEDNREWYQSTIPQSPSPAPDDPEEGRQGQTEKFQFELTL

`CCc1nn(CCCOC(=O)c2cccc(C(F)(F)F)c2Cl)c2c1C(=O)NCC1(CCOCC1)C2` [Example 123, 3-(3-ethyl-4-oxo-spiro[6,8-dihydro-5H-pyrazolo[4,3-c]azepine-7,4′-tetrahydropyran]-1-yl)propyl 2-chloro-3-(trifluoromethyl)benzoate] and `CCc1nn(CCCOC(=O)c2cc(Cl)ccc2C(F)(F)F)c2c1C(=O)NCC1(CCOCC1)C2` [Example 124, 3-(3-ethyl-4-oxo-spiro[6,8-dihydro-5H-pyrazolo[4,3-c]azepine-7,4′-tetrahydropyran]-1-yl)propyl 5-chloro-2-(trifluoromethyl)benzoate] cannot be ordered by IC50: less than 100 nM for the first, less than 100 nM for the second.

`CCc1nn(CCCOC(=O)c2ccc(C(F)(F)F)c(Cl)c2)c2c1C(=O)NCC1(CCOCC1)C2` [Example 125, 3-(3-ethyl-4-oxo-spiro[6,8-dihydro-5H-pyrazolo[4,3-c]azepine-7,4′-tetrahydropyran]-1-yl)propyl 3-chloro-4-(trifluoromethyl)benzoate] and `CCc1nn(CCCOC(=O)c2ccc(C(F)(F)F)cc2Cl)c2c1C(=O)NCC1(CCOCC1)C2` [Example 126, 3-(3-ethyl-4-oxo-spiro[6,8-dihydro-5H-pyrazolo[4,3-c]azepine-7,4′-tetrahydropyran]-1-yl)propyl 2-chloro-4-(trifluoromethyl)benzoate] cannot be ordered by IC50: less than 100 nM for the first, less than 100 nM for the second.

`CCc1nn(CCCOC(=O)c2cc(Cl)cc(C(F)(F)F)c2)c2c1C(=O)NCC1(CCOCC1)C2` [Example 127, 3-(3-ethyl-4-oxo-spiro[6,8-dihydro-5H-pyrazolo[4,3-c]azepine-7,4′-tetrahydropyran]-1-yl)propyl 3-chloro-5-(trifluoromethyl)benzoate] and `CCc1nn(CCCOC(=O)c2cc(C(F)(F)F)ccc2Cl)c2c1C(=O)NCC1(CCOCC1)C2` [Example 128, 3-(3-ethyl-4-oxo-spiro[6,8-dihydro-5H-pyrazolo[4,3-c]azepine-7,4′-tetrahydropyran]-1-yl)propyl 2-chloro-5-(trifluoromethyl)benzoate] cannot be ordered by IC50: less than 100 nM for the first, less than 100 nM for the second.

`CCc1nn(CCCOC(=O)c2cccc(S(=O)(=O)C(C)C)c2)c2c1C(=O)NCC1(CCOCC1)C2` [Example 129, 3-(3-ethyl-4-oxo-spiro[6,8-dihydro-5H-pyrazolo[4,3-c]azepine-7,4′-tetrahydropyran]-1-yl)propyl 3-isopropylsulfonylbenzoate] and `CCc1nn(CCCOC(=O)c2ccc(S(=O)(=O)C(C)C)cc2)c2c1C(=O)NCC1(CCOCC1)C2` [Example 130, 3-(3-ethyl-4-oxo-spiro[6,8-dihydro-5H-pyrazolo[4,3-c]azepine-7,4′-tetrahydropyran]-1-yl)propyl 4-isopropylsulfonylbenzoate] cannot be ordered by IC50: less than 100 nM for the first, less than 100 nM for the second.

First: CCc1nn(CCCOC(=O)c2ccc(S(=O)(=O)N(C)C)cc2)c2c1C(=O)NCC1(CCOCC1)C2 [Example 131, 3-(3-ethyl-4-oxo-spiro[6,8-dihydro-5H-pyrazolo[4,3-c]azepine-7,4′-tetrahydropyran]-1-yl)propyl 4-(dimethylsulfamoyl) benzoate]
Second: CCc1nn(CCCOC(=O)c2ccc(C(=O)N(C)C)cc2)c2c1C(=O)NCC1(CCOCC1)C2 [Example 143, 3-(3-ethyl-4-oxo-spiro[6,8-dihydro-5H-pyrazolo[4,3-c]azepine-7,4′-tetrahydropyran]-1-yl)propyl 4-(dimethylcarbamoyl)-benzoate]
The IC50 of the first is lower: less than 100 nM for the first, 100 to 500 nM for the second. The first is the more potent here.

`CCc1nn(CCCOC(=O)c2ccc(S(=O)(=O)C3CCCC3)cc2)c2c1C(=O)NCC1(CCOCC1)C2` [Example 132, 3-(3-ethyl-4-oxo-spiro[6,8-dihydro-5H-pyrazolo[4,3-c]azepine-7,4′-tetrahydropyran]-1-yl)propyl 4-cyclopentylsulfonyl-benzoate] and `CCc1nn(CCCOC(=O)c2ccc(C(=O)N3CCCC3)cc2)c2c1C(=O)NCC1(CCOCC1)C2` [Example 145, 3-(3-ethyl-4-oxo-spiro[6,8-dihydro-5H-pyrazolo[4,3-c]azepine-7,4′-tetrahydropyran]-1-yl)propyl 4-(pyrrolidine-1-carbonyl)benzoate] fall in the same range of IC50: 100 to 500 nM for the first, 100 to 500 nM for the second.

`CCc1nn(CCCOC(=O)c2ccc(C(F)(F)F)cc2C(F)(F)F)c2c1C(=O)NCC1(CCOCC1)C2` [Example 135, 3-(3-ethyl-4-oxo-spiro[6,8-dihydro-5H-pyrazolo[4,3-c]azepine-7,4′-tetrahydropyran]-1-yl)propyl 2,4-bis(trifluoromethyl) benzoate] and `CCc1nn(CCCOC(=O)c2ccc(C(F)(F)F)c(C(F)(F)F)c2)c2c1C(=O)NCC1(CCOCC1)C2` [Example 136, 3-(3-ethyl-4-oxo-spiro[6,8-dihydro-5H-pyrazolo[4,3-c]azepine-7,4′-tetrahydropyran]-1-yl)propyl 3,4-bis(trifluoromethyl) benzoate] cannot be ordered by IC50: less than 100 nM for the first, less than 100 nM for the second.

`CCc1nn(CCCOC(=O)c2ccc(C(N)=O)cc2)c2c1C(=O)NCC1(CCOCC1)C2` [Example 140, 3-(3-ethyl-4-oxo-spiro[6,8-dihydro-5H-pyrazolo[4,3-c]azepine-7,4′-tetrahydropyran]-1-yl)propyl 4-carbamoylbenzoate] and `CCc1nn(CCCOC(=O)c2ccc(C(=O)NC)cc2)c2c1C(=O)NCC1(CCOCC1)C2` [Example 141, 3-(3-ethyl-4-oxo-spiro[6,8-dihydro-5H-pyrazolo[4,3-c]azepine-7,4′-tetrahydropyran]-1-yl)propyl 4-(methylcarbamoyl)benzoate] cannot be ordered by IC50: less than 100 nM for the first, less than 100 nM for the second.

`CCNC(=O)c1ccc(C(=O)OCCCn2nc(CC)c3c2CC2(CCOCC2)CNC3=O)cc1` [Example 142, 3-(3-ethyl-4-oxo-spiro[6,8-dihydro-5H-pyrazolo[4,3-c]azepine-7,4′-tetrahydropyran]-1-yl)propyl 4-(ethylcarbamoyl)benzoate] and `CCc1nn(CCCOC(=O)c2ccc(C(=O)NC(C)C)cc2)c2c1C(=O)NCC1(CCOCC1)C2` [Example 144, 3-(3-ethyl-4-oxo-spiro[6,8-dihydro-5H-pyrazolo[4,3-c]azepine-7,4′-tetrahydropyran]-1-yl)propyl 4-(isopropylcarbamoyl)-benzoate] cannot be ordered by IC50: less than 100 nM for the first, less than 100 nM for the second.

`CCc1nn(CCCOC(=O)c2ccc(C(=O)N3CCCCC3)cc2)c2c1C(=O)NCC1(CCOCC1)C2` [Example 146, 3-(3-ethyl-4-oxo-spiro[6,8-dihydro-5H-pyrazolo[4,3-c]azepine-7,4′-tetrahydropyran]-1-yl)propyl 4-(piperidine-1-carbonyl)benzoate] and `CCc1nn(CCCOC(=O)c2cccc(C(=O)N3CCCCC3)c2)c2c1C(=O)NCC1(CCOCC1)C2` [Example 156, 3-(3-ethyl-4-oxo-spiro[6,8-dihydro-5H-pyrazolo[4,3-c]azepine-7,4′-tetrahydropyran]-1-yl)propyl 3-(piperidine-1-carbonyl)benzoate] cannot be ordered by IC50: less than 100 nM for the first, less than 100 nM for the second.

First: CCc1nn(CCCOC(=O)c2ccc(C(=O)N3CCOCC3)cc2)c2c1C(=O)NCC1(CCOCC1)C2 [Example 147, 3-(3-ethyl-4-oxo-spiro[6,8-dihydro-5H-pyrazolo[4,3-c]azepine-7,4′-tetrahydropyran]-1-yl)propyl 4-(morpholine-4-carbonyl)benzoate]
Second: CCc1nn(CCCOC(=O)c2cccc(C(=O)N3CCOCC3)c2)c2c1C(=O)NCC1(CCOCC1)C2 [Example 157, 3-(3-ethyl-4-oxo-spiro[6,8-dihydro-5H-pyrazolo[4,3-c]azepine-7,4′-tetrahydropyran]-1-yl)propyl 3-(morpholine-4-carbonyl)benzoate]
The IC50 of the first is higher: 100 to 500 nM for the first, less than 100 nM for the second. The second is the more potent here.

`CCc1nn(CCCOC(=O)c2ccc(C(=O)N3CCN(C)CC3)cc2)c2c1C(=O)NCC1(CCOCC1)C2` [Example 148, 3-(3-ethyl-4-oxo-spiro[6,8-dihydro-5H-pyrazolo[4,3-c]azepine-7,4′-tetrahydropyran]-1-yl)propyl 4-(4-methylpiperazine-1-carbonyl)benzoate] and `CCc1nn(CCCOC(=O)c2ccc(C(=O)N3CCN(C(C)=O)CC3)cc2)c2c1C(=O)NCC1(CCOCC1)C2` [Example 149, 3-(3-ethyl-4-oxo-spiro[6,8-dihydro-5H-pyrazolo[4,3-c]azepine-7,4′-tetrahydropyran]-1-yl)propyl 4-(4-acetylpiperazine-1-carbonyl)benzoate] fall in the same range of IC50: 100 to 500 nM for the first, 100 to 500 nM for the second.

`CCc1nn(CCCOC(=O)c2cccc(C(N)=O)c2)c2c1C(=O)NCC1(CCOCC1)C2` [Example 150, 3-(3-ethyl-4-oxo-spiro[6,8-dihydro-5H-pyrazolo[4,3-c]azepine-7,4′-tetrahydropyran]-1-yl)propyl 3-carbamoylbenzoate] and `CCc1nn(CCCOC(=O)c2cccc(C(=O)NC)c2)c2c1C(=O)NCC1(CCOCC1)C2` [Example 151, 3-(3-ethyl-4-oxo-spiro[6,8-dihydro-5H-pyrazolo[4,3-c]azepine-7,4′-tetra-hydropyran]-1-yl)propyl 3-(methylcarbamoyl)benzoate] cannot be ordered by IC50: less than 100 nM for the first, less than 100 nM for the second.

`CCNC(=O)c1cccc(C(=O)OCCCn2nc(CC)c3c2CC2(CCOCC2)CNC3=O)c1` [Example 152, 3-(3-ethyl-4-oxo-spiro[6,8-dihydro-5H-pyrazolo[4,3-c]azepine-7,4′-tetrahydropyran]-1-yl)propyl 3-(ethylcarbamoyl)benzoate] and `CCc1nn(CCCOC(=O)c2cccc(C(=O)NC(C)C)c2)c2c1C(=O)NCC1(CCOCC1)C2` [Example 154, 3-(3-ethyl-4-oxo-spiro[6,8-dihydro-5H-pyrazolo[4,3-c]azepine-7,4′-tetrahydropyran]-1-yl)propyl 3-(isopropylcarbamoyl)-benzoate] cannot be ordered by IC50: less than 100 nM for the first, less than 100 nM for the second.

`CCc1nn(CCCOC(=O)c2cccc(C(=O)N(C)C)c2)c2c1C(=O)NCC1(CCOCC1)C2` [Example 153, 3-(3-ethyl-4-oxo-spiro[6,8-dihydro-5H-pyrazolo[4,3-c]azepine-7,4′-tetrahydropyran]-1-yl)propyl 3-(dimethylcarbamoyl)-benzoate] and `CCc1nn(CCCOC(=O)c2cccc(C(=O)N3CCCC3)c2)c2c1C(=O)NCC1(CCOCC1)C2` [Example 155, 3-(3-ethyl-4-oxo-spiro[6,8-dihydro-5H-pyrazolo[4,3-c]azepine-7,4′-tetrahydropyran]-1-yl)propyl 3-(pyrrolidine-1-carbonyl)benzoate] cannot be ordered by IC50: less than 100 nM for the first, less than 100 nM for the second.
